The assay deals with MDA-MB-231 (human breast cancer) cell line. Briefly: MTT cell viability assay in MDA-MB-231 cells. It counts as cell-based. The settings on record: for inhibition at 25 µM: MDA-MB-231, 25 μM concentration; for IC50: MDA-MB-231, MTT, concentrations 10, 25 and 50 µM, n = 3, read-out: IC50 against MDA-MB-231 breast cancer cell line; for IC50 / viability at 10 µM / viability at 25 µM / viability at 50 µM: 72 h; for viability at 10 µM / viability at 25 µM / viability at 50 µM: Table 2, MDA-MB-231, MTT, read-out: Cell viability (%) ± SD. In a few lines: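 MDA-MB-231 cells in DMEM/10% FBS, used before passage 8, exposed to compounds at several concentrations for 72 h at 37 °C. MTT added for 3 h; formazan dissolved in DMSO and read at 595 nm. Viability expressed as percent of untreated control.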

Six compounds from PMC10766964, “Copper-catalyzed synthesis of pyrazolo[1,5-a]pyrimidine based triazole-linked glycohybrids: mechanistic insights and bio-applications” (Scientific Reports, 2024) can be followed below.

A word on the inhibition: it is how much of the control response was suppressed. A high value points to a strong effect. For orientation: IC50 means the concentration that inhibits the measured activity by half. For orientation: viability means a per cent measure of how many cells are alive, often set against a control.

`CC(=O)OC[C@H]1O[C@H](n2cc(COc3cc(-c4ccc(C(C)C)cc4)nc4ccnn34)nn2)[C@@H](OC(C)=O)[C@@H](OC(C)=O)[C@@H]1OC(C)=O` [Compound 11g, (2R,3R,4S,5S,6S)-2-(acetoxymethyl)-6-(4-(((5-(4-isopropylphenyl)pyrazolo[1,5-a]pyrimidin-7-yl)oxy)methyl)-1H-1,2,3-triazol-1-yl)tetrahydro-2H-pyran-3,4,5-triyl triacetate]: the inhibition at 25 µM was roughly 50%, the IC50 amounted to 38.8 µM, the viability at 10 µM was found to be 66.7 ± 8.21% and the viability at 25 µM is 54.3 ± 6.12%. The viability at 50 µM was 45.3 ± 4.11%.

For the compound `CC(=O)OC[C@H]1O[C@@H](n2cc(COc3cc(-c4ccc(C)cc4)nc4ccnn34)nn2)[C@H](OC(C)=O)[C@@H](OC(C)=O)[C@@H]1OC(C)=O` [Compound 9a, (2R,3R,4S,5R,6R)-2-(acetoxymethyl)-6-(4-(((5-(p-tolyl)pyrazolo[1,5-a]pyrimidin-7-yl)oxy)methyl)-1H-1,2,3-triazol-1-yl)tetrahydro-2H-pyran-3,4,5-triyl triacetate], the inhibition at 25 µM is roughly 50%, the concentration for half-maximal inhibition (IC50) was determined as 29.6 µM, the viability at 10 µM amounted to 70.1 ± 9.53% and the viability at 25 µM was 51 ± 9.19%. Further, the viability at 50 µM amounted to 35.3 ± 4.29%.

As for `CC(=O)OC[C@H]1O[C@@H](n2cc(COc3cc(-c4ccc(Cl)cc4)nc4ccnn34)nn2)[C@H](OC(C)=O)[C@@H](OC(C)=O)[C@H]1OC(C)=O` [Compound 10d, (2R,3S,4S,5R,6R)-2-(acetoxymethyl)-6-(4-(((5-(4-chlorophenyl)pyrazolo[1,5-a]pyrimidin-7-yl)oxy)methyl)-1H-1,2,3-triazol-1-yl)tetrahydro-2H-pyran-3,4,5-triyl triacetate], the inhibition at 25 µM is roughly 50%, the IC50 was 29.1 µM, the viability at 10 µM stood at 56.7 ± 8.23% and the viability at 25 µM was determined as 53.3 ± 6.32%. The viability at 50 µM is 41 ± 4.91%.

As for `CC(=O)OC[C@H]1O[C@@H](n2cc(COc3cc(-c4ccc5ccccc5c4)nc4ccnn34)nn2)[C@H](OC(C)=O)[C@@H](OC(C)=O)[C@@H]1OC(C)=O` [Compound 9h, (2R,3R,4S,5R,6R)-2-(acetoxymethyl)-6-(4-(((5-(naphthalen-2-yl)pyrazolo[1,5-a]pyrimidin-7-yl)oxy)methyl)-1H-1,2,3-triazol-1-yl)tetrahydro-2H-pyran-3,4,5-triyl triacetate], the inhibition at 25 µM was roughly 50%, the IC50 worked out at 35.9 µM, the viability at 10 µM stood at 96.6 ± 3.36% and the viability at 25 µM is 55.2 ± 7.06%. Also, the viability at 50 µM was 42.8 ± 5.04%.

As to `CC(=O)OC[C@H]1O[C@@H](n2cc(COc3cc(-c4ccc(Cl)cc4)nc4ccnn34)nn2)[C@H](OC(C)=O)[C@@H](OC(C)=O)[C@@H]1OC(C)=O` [Compound 9d, (2R,3R,4S,5R,6R)-2-(acetoxymethyl)-6-(4-(((5-(4-chlorophenyl)pyrazolo[1,5-a]pyrimidin-7-yl)oxy)methyl)-1H-1,2,3-triazol-1-yl)tetrahydro-2H-pyran-3,4,5-triyl triacetate], the inhibition at 25 µM was roughly 50%, the IC50 worked out at 43.1 µM, the viability at 10 µM came to 75.6 ± 9.76% and the viability at 25 µM was determined as 61 ± 8.47%. Besides, the viability at 50 µM was 58.6 ± 5.61%.

Consider `CC(=O)OC[C@H]1O[C@@H](n2cc(COc3cc(-c4ccc(C(F)(F)F)cc4)nc4ccnn34)nn2)[C@H](OC(C)=O)[C@@H](OC(C)=O)[C@H]1OC(C)=O` [Compound 10f, (2R,3S,4S,5R,6R)-2-(acetoxymethyl)-6-(4-(((5-(4-(trifluoromethyl)phenyl)pyrazolo[1,5-a]pyrimidin-7-yl)oxy)methyl)-1H-1,2,3-triazol-1-yl)tetrahydro-2H-pyran-3,4,5-triyl triacetate], for which the inhibition at 25 µM is roughly 50%, the IC50 was 31.2 µM, the viability at 10 µM came to 69.4 ± 5.36% and the viability at 25 µM came out at 45.1 ± 3.32%. Further, the viability at 50 µM was 41.2 ± 1.26%.
